This is an account of results in patent publication US7109339B2, “Substituted tricyclic gamma-carbolines as serotonin receptor agonists and antagonists” (Bristol-Myers Squibb Company, priority 2002, dated 2006).

Molecules are shown by their SMILES.

With `COc1cc2c(c(C(F)(F)F)c1)N[C@H]1CCNC[C@@H]21`, the melting point lay in the range of 140 to 144 °C.

`CC(C)(C)OC(=O)N1CC[C@H]2[C@@H](C1)c1cc(Br)cc(C#N)c1N2C(=O)OC(C)(C)C` registered a melting point of 74 to 78 °C. To `COc1ncc(C)cc1Nc1cc(C#N)c2c(c1)[C@@H]1CNCC[C@@H]1N2C` [Example 169, (4aS,9bR)-8-(2-methoxy-5-methyl-pyridin-3-ylamino)-5-methyl-2,3,4,4a,5,9b-hexahydro-1H-pyrido[4,3-b]indole-6-carbonitrile] belongs 76 to 80 °C.

By melting point is commonly meant the temperature, or range, at which the solid turns liquid.
